This assay concerns the target T1, DRB1*0301 (DR3w17) (Homo sapiens, UniProt P01903+P01911, A100K/A102G/A103R/A169T/F55Y/I96L/K41T/L162R/M171V/P40S/Q125H/Q178H/Q39Y/R42S/S66N/T106N/T262R/W38E/Y61H).
T1 construct: used as sources of human HLA class II molecules; endogenous in cells; host or cells: MAT (EBV-transformed homozygous B cell line)
Nature of the assay: Class II peptide-binding assay, DR3 (pH 4.5).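 Note: unlabeled peptide competing with a radiolabeled probe peptide for binding to affinity-purified HLA-DR3, IC50 regarded as an approximation of Kd.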 The note with it: Table VIII.

Setting [1] is: read-out: In IC50 Format DR3 nM, values in parentheses read as lower bounds.

Where two headings read alike, the source gives them in different places. Ends that are not written are not given here. Where only a bound is given, the exact number is not on record here.

T1 sequence (P01903 26-254, other chains not shown): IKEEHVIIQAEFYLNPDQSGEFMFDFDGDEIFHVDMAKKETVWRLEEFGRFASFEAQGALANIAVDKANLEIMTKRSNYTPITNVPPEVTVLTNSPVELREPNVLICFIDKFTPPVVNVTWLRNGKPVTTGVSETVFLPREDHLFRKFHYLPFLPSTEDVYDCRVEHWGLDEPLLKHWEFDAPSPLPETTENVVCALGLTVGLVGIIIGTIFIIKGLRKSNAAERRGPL

For orientation: IC50 means the point on the concentration scale where inhibition reaches its midpoint. For the molecule `CC[C@H](C)[C@H](NC(=O)[C@H](CCC(N)=O)NC(=O)[C@H](CC(C)C)NC(=O)[C@@H](NC(=O)[C@H](Cc1ccccc1)NC(=O)[C@H](Cc1ccc(O)cc1)NC(=O)[C@H](CCC(=O)O)NC(=O)CNC(=O)[C@H](CC(=O)O)NC(=O)[C@H](CC(C)C)NC(=O)[C@@H]1CCCN1C(=O)[C@H](CCCCN)NC(=O)[C@@H](N)CCCCN)[C@@H](C)O)C(=O)N[C@@H](CCCNC(=N)N)C(=O)NCC(=O)O` [Peptide 39.0422], the IC50 (read-out: In IC50 Format DR3) is above 120 µM.
Regarding AIKVLRENTSPKANK [Peptide 39.0362], the half-inhibitory concentration (IC50) under setting [1] worked out at 40 µM.
In the case of `CC(C)C[C@H](NC(=O)[C@@H]1CCCN1C(=O)[C@H](C)NC(=O)[C@@H](NC(=O)[C@H](CC(N)=O)NC(=O)[C@H](CO)NC(=O)[C@H](C)NC(=O)[C@@H]1CCCN1C(=O)[C@H](CC(=O)O)NC(=O)CNC(=O)[C@H](CC(=O)O)NC(=O)[C@H](Cc1ccccc1)NC(=O)[C@H](CO)NC(=O)[C@H](CCC(=O)O)NC(=O)[C@@H]1CCCN1)[C@@H](C)O)C(=O)O` [Peptide 39.0350], the half-maximal inhibitory concentration (IC50) under setting [1] is above 111 µM.
In the case of TVPLPSETDGYVAPL [Peptide 39.0380], the half-inhibitory concentration (IC50) under setting [1] was above 120 µM.
Regarding SLSFLQDIQEVQGYV [Peptide 39.0339], the IC50 (values in parentheses read as lower bounds, read-out: In IC50 Format DR3) turned out to be 5.77 µM.
Turning to `CC(C)C[C@H](NC(=O)[C@@H](NC(=O)[C@H](CCC(=O)O)NC(=O)[C@H](Cc1ccccc1)NC(=O)[C@@H](NC(=O)[C@H](CCC(N)=O)NC(=O)[C@H](CC(C)C)NC(=O)[C@H](CCC(N)=O)NC(=O)[C@H](CCC(=O)O)NC(=O)[C@@H]1CCCN1C(=O)[C@H](CCC(N)=O)NC(=O)[C@H](CC(C)C)NC(=O)[C@@H]1CCCN1C(=O)[C@H](C)NC(=O)[C@@H](N)[C@@H](C)O)C(C)C)[C@@H](C)O)C(=O)O` [Peptide 39.0351], the 50% inhibitory concentration (IC50) under setting [1] turned out to be 130 µM.
As to FVVIQNEDLGPASPL [Peptide 39.0372], under setting [1], the 50% inhibitory concentration (IC50) is above 120 µM.
For `CC[C@H](C)[C@H](NC(=O)[C@H](C)NC(=O)[C@@H](N)CC(C)C)C(=O)N[C@H](C(=O)N[C@@H](C)C(=O)N[C@@H](CCCNC(=N)N)C(=O)N[C@@H](CCC(=O)O)C(=O)NCC(=O)N[C@@H](CC(=O)O)C(=O)N[C@@H](CS)C(=O)N[C@@H](C)C(=O)N1CCC[C@H]1C(=O)N[C@@H](CCC(=O)O)C(=O)N[C@@H](CCC(=O)O)C(=O)N[C@@H](CCCCN)C(=O)O)[C@@H](C)CC` [Peptide 39.0405], where the note is “read-out: In IC50 Format DR3”, the IC50 is above 120 µM.
Still for that read-out and setting: in the case of `C[C@H](NC(=O)[C@H](CCC(=O)O)NC(=O)[C@H](CC(=O)O)NC(=O)[C@@H]1CCCN1C(=O)CNC(=O)[C@@H]1CCCN1C(=O)[C@H](CC(=O)O)NC(=O)[C@H](CCC(=O)O)NC(=O)[C@@H](NC(=O)[C@H](Cc1ccccc1)NC(=O)[C@H](Cc1c[nH]c2ccccc12)NC(=O)[C@H](CCC(N)=O)NC(=O)[C@@H](N)CCC(=O)O)[C@@H](C)O)C(=O)N1CCC[C@H]1C(=O)N[C@@H](CCCNC(=N)N)C(=O)O` [Peptide 39.0412] it was above 120 µM.
For the molecule `CC(C)C[C@H](NC(=O)[C@H](CS)NC(=O)[C@H](Cc1c[nH]cn1)NC(=O)[C@H](CCCNC(=N)N)NC(=O)[C@H](C)NC(=O)[C@H](CC(N)=O)NC(=O)[C@@H](NC(=O)[C@H](Cc1ccc(O)cc1)NC(=O)[C@H](CCC(=O)O)NC(=O)[C@H](CCCNC(=N)N)NC(=O)[C@@H]1CCCN1C(=O)[C@H](CC(C)C)NC(=O)CNC(=O)[C@H](CCC(N)=O)NC(=O)[C@@H](N)CC(C)C)C(C)C)C(=O)O` [Peptide 39.0355], the IC50 under setting [1] was above 111 µM.
As for `CC(C)C[C@H](NC(=O)[C@@H]1CCCN1C(=O)CNC(=O)[C@@H](N)CCCCN)C(=O)N1CCC[C@H]1C(=O)N[C@H](C(=O)N[C@@H](CC(=O)O)C(=O)N[C@@H](CS)C(=O)N[C@@H](CS)C(=O)N[C@@H](Cc1c[nH]cn1)C(=O)N[C@@H](CCC(=O)O)C(=O)N[C@@H](CCC(N)=O)C(=O)N[C@@H](CS)C(=O)N[C@@H](C)C(=O)N[C@@H](C)C(=O)O)[C@@H](C)O` [Peptide 39.0344], the IC50 under setting [1] was above 111 µM.
On the same count and under the same terms, in the case of DTILWKDIFHKNNQL [Peptide 39.0342] it was above 111 µM.
As for `CC[C@H](C)[C@H](NC(=O)[C@H](CC(=O)O)NC(=O)[C@H](CC(=O)O)NC(=O)[C@@H]1CCCN1C(=O)[C@H](CO)NC(=O)[C@H](CC(C)C)NC(=O)[C@H](CCSC)NC(=O)[C@H](CC(C)C)NC(=O)[C@@H](N)CC(=O)O)C(=O)N[C@@H](CCC(=O)O)C(=O)N[C@@H](CCC(N)=O)C(=O)N[C@@H](Cc1c[nH]c2ccccc12)C(=O)N[C@@H](Cc1ccccc1)C(=O)N[C@H](C(=O)N[C@@H](CCC(=O)O)C(=O)O)[C@@H](C)O` [Peptide 39.0411], the half-inhibitory concentration (IC50) (read-out: In IC50 Format DR3) turned out to be 20 µM.
On the same count and under the same terms, under `CC(C)C[C@H](NC(=O)[C@H](CC(N)=O)NC(=O)CNC(=O)[C@@H](N)CCC(=O)O)C(=O)N[C@@H](CCCNC(=N)N)C(=O)N[C@H](C(=O)N[C@@H](CCC(=O)O)C(=O)N[C@@H](Cc1ccc(O)cc1)C(=O)N[C@@H](CC(C)C)C(=O)N[C@@H](CC(=O)O)C(=O)N[C@@H](CC(=O)O)C(=O)N[C@@H](CCCNC(=N)N)C(=O)N[C@@H](CC(N)=O)C(=O)N[C@H](C(=O)N[C@@H](Cc1ccccc1)C(=O)O)[C@@H](C)O)C(C)C` [Peptide 39.0417] stands 76.9 µM.
As for `CC(C)C[C@H](NC(=O)[C@@H]1CCCN1C(=O)[C@@H](NC(=O)[C@@H](NC(=O)[C@@H]1CCCN1C(=O)[C@H](CC(=O)O)NC(=O)[C@H](CCC(=O)O)NC(=O)[C@H](CO)NC(=O)[C@H](Cc1ccc(O)cc1)NC(=O)[C@H](CCCNC(=N)N)NC(=O)[C@H](CCC(N)=O)NC(=O)[C@@H](N)CC(C)C)[C@@H](C)O)C(C)C)C(=O)N1CCC[C@H]1C(=O)N[C@@H](CO)C(=O)N[C@@H](CCC(=O)O)C(=O)O` [Peptide 39.0379], the IC50 under setting [1] turned out to be 11.1 µM.
On to `C[C@H](NC(=O)CNC(=O)CNC(=O)[C@@H](N)CCC(N)=O)C(=O)N[C@@H](C)C(=O)N1CCC[C@H]1C(=O)N[C@@H](CCC(N)=O)C(=O)N1CCC[C@H]1C(=O)N[C@@H](Cc1c[nH]cn1)C(=O)N1CCC[C@H]1C(=O)N1CCC[C@H]1C(=O)N1CCC[C@H]1C(=O)N[C@@H](C)C(=O)N[C@@H](Cc1ccccc1)C(=O)N[C@@H](CO)C(=O)O` [Peptide 39.0382], for which the half-inhibitory concentration (IC50) under setting [1] is above 120 µM.
As to `CC(C)[C@H](N)C(=O)N[C@H](C(=O)N[C@@H](CS)C(=O)N[C@@H](Cc1ccccc1)C(=O)NCC(=O)N1CCC[C@H]1C(=O)N[C@@H](CCC(=O)O)C(=O)N[C@@H](C)C(=O)N[C@@H](CC(=O)O)C(=O)N[C@@H](CCC(N)=O)C(=O)N[C@@H](CS)C(=O)N[C@H](C(=O)N[C@@H](C)C(=O)N[C@@H](CS)C(=O)N[C@@H](C)C(=O)O)C(C)C)[C@@H](C)O` [Peptide 39.0356], the concentration for half-maximal inhibition (IC50) under setting [1] was above 111 µM.
In the case of LVTYNTDTFESMPNP [Peptide 39.0345], under setting [1], the IC50 is above 111 µM.
With `CC[C@H](C)[C@H](NC(=O)[C@@H](NC(=O)[C@H](Cc1c[nH]cn1)NC(=O)[C@@H](N)CC(C)C)C(C)C)C(=O)N[C@@H](CCCCN)C(=O)N[C@@H](CO)C(=O)N[C@@H](CC(=O)O)C(=O)N[C@@H](CC(C)C)C(=O)N[C@H](C(=O)N[C@@H](CC(N)=O)C(=O)N[C@@H](CCC(=O)O)C(=O)N[C@@H](CCC(=O)O)C(=O)N[C@@H](C)C(=O)N[C@H](C(=O)NCC(=O)O)[C@@H](C)O)C(C)C` [Peptide 39.0314], the IC50 (page 2, pH 4.5, read-out: In IC50 Format DR3) came to 2.31 µM.
For SDVFDGDLGMGAAKG [Peptide 39.0378], the 50% inhibitory concentration (IC50) under setting [1] is above 120 µM.
As to `CC[C@H](C)[C@H](NC(=O)[C@@H](NC(=O)[C@@H](N)CC(C)C)[C@@H](C)O)C(=O)N[C@H](C(=O)N[C@H](C(=O)N[C@@H](CC(C)C)C(=O)N[C@@H](CCC(=O)O)C(=O)N[C@@H](CC(=O)O)C(=O)N[C@@H](CO)C(=O)N[C@@H](CO)C(=O)NCC(=O)N[C@@H](CC(N)=O)C(=O)N[C@@H](CC(C)C)C(=O)N[C@@H](CC(C)C)C(=O)NCC(=O)O)[C@@H](C)O)[C@@H](C)CC` [Peptide 39.0421], the concentration for half-maximal inhibition (IC50) (read-out: In IC50 Format DR3) amounted to 100 µM.
Consider `CC(C)C[C@H](NC(=O)[C@H](CCC(N)=O)NC(=O)[C@H](CC(=O)O)NC(=O)[C@H](Cc1c[nH]c2ccccc12)NC(=O)[C@@H]1CCCN1C(=O)[C@@H](NC(=O)[C@@H](NC(=O)[C@H](Cc1c[nH]cn1)NC(=O)[C@@H](N)C(C)C)[C@@H](C)O)C(C)C)C(=O)N[C@@H](Cc1ccccc1)C(=O)N[C@@H](CCCNC(=N)N)C(=O)N[C@@H](CC(N)=O)C(=O)N1CCC[C@H]1C(=O)N[C@@H](Cc1c[nH]cn1)C(=O)N[C@@H](CCC(N)=O)C(=O)O` [Peptide 39.0353], for which, under setting [1], the IC50 stood at 13.6 µM.

The values are drawn from patent EP1388586A2, “Identification of broadly reactive DR restricted epitopes” (priority 1998, dated 1999).
